Results as given in patent US10322135B2, “Pharmaceutical composition comprising indole compound” (LG CHEM, LTD., priority 2009, dated 2019).
pIC50: −log10 of the molar value.

Experiments:
[1] = Anti-oxidant effect by using DPPH; type: biochemical; conditions: read-out: DPPH anti-oxidant effect (IC50); concentration decreasing absorbance at 517 nm to 50%; 30 min, room temperature
Description: DPPH (1,1-diphenyl-2-picrylhydrazyl) is a stable free radical and has a purple color. […] Herein, the term “IC50” refers to the concentration of a compound which decreases absorbance at 517 nm to 50% of the original value.
180 μl of DPPH solution (200 μM in DMSO) was dispensed into each well of a 96-well plate, and 20 μl of compounds, which was serially diluted two-fold from 2,000 μM, was added thereto. They were then well mixed and kept at room temperature for 30 minutes. After 30 minutes, O.D. value at 517 nm was measured with a spectraMAX ELISA reader.

[2] = Direct anti-oxidant effect on H2O2 (DHR123 probe, cell-free); type: biochemical; conditions: DHR123 1.25 μM, 2 hrs
Description: (§1) 10 μl of DHR123 probe (final concentration: 1.25 μM) was added to 10 μl of each compound which was diluted with 100 μl of DMEM complete media. H2O2 and tBOOH were added as the concentration shown in the following Table 5 and after 2 hrs, fluorescence at wavelengths (480 nm (ex)/538 nm (em)) was measured with spectraMax gemini. Herein, the term “IC25” refers to the concentration of compound which causes 25% decrease of fluorescence assuming the amount emitted by oxidation of DHR123 caused by H2O2 or tBOOH was 100%.

[3] = Direct anti-oxidant effect on tBOOH (DHR123 probe, cell-free); type: biochemical; conditions: DHR123 1.25 μM, 2 hrs
Description: as §1

H9C2 cells [4] = assay: Cell protection effect against oxidative stress induced by tBOOH (SRB staining); type: cell-based; conditions: Rattus norvegicus, 400 μM tBOOH 2 hrs, concentration protecting 50% of cells from necrosis
Description: It is known that tertiary-butylhydroperoxide (tBOOH) induces cell necrosis by causing oxidative stress in various cells. […] H9C2 cells were dispensed into each well of a 96-well plate (1.5×10 ^4 cells/100 μl/well). The next day, the cells were pretreated with each compound and then treated with tBOOH (final concentration: 400 μM) for 2 hrs. 50 μl of formaldehyde was added to each well to fix the cells. Cells were fixed for 30 minutes and washed with distilled water three times. Then, the plate was completely dried in a 50° C. dry oven and SRB solution was added thereto to stain remaining protein. The plate was washed with 1% acetic acid and dried. […] Herein, the term “IC50” refers to the concentration of compound which protects 50% of cells from necrosis induced by tBOOH treatment.

H9C2 cells [5] = assay: Anti-oxidant effect by using dihydrorhodamine 123 in tBOOH-treated H9C2 cells; type: cell-based; conditions: 1 hr pretreatment, 400 μM tBOOH 2 hrs, 25% inhibition of DHR123 fluorescence
Description: Dihydrorhodamine 123 itself is nonfluorescent but is converted to fluorescent rhodamine 123 when it is oxidized by ROS (reactive oxygen species) or RNS (reactive nitrogen species). […] H9C2 cells were dispensed into each well of a 96-well plate (1.5×10^4 cells/100 μl/well). The next day, the cells were pretreated with each compound, which was serially diluted 3-fold from the highest concentration, for 1 hr, and then treated with 10 μl of DHR123 12.5 μM stock solution (final concentration: 1.25 μM) in 37° C. incubator for 30 minutes. The cells were then immediately treated with 400 μM tBOOH and incubated for 2 hrs. Then, fluorescence, which was excited at 480 nm and emitted at 538 nm, was measured with a spectraMAX Gemini microplate reader. […] PBS. Then 100 μl of PBS was added to each well of the 96-well plate and fluorescence of each cell was measured by immunofluorescence microscopy (fluorescence microscope: Olympus) (Because of DHR123 in cells, fluorescence is emitted in proportion to oxidation). In addition, inhibition of the generation of superoxide was measured with MitoSOX red probe (final concentration: 5 μM) as the same method.

[6] = Removal capacity of ONOO− (peroxynitrite) by using dihydrorhodamine 123; type: biochemical; conditions: 50% inhibition of DHR123 oxidation by 1 μM ONOO−
Description: ONOO^− (peroxynitrite), which is known as a kind of RNS, plays a very important role in oxidative stress. Thus, it is very important to evaluate the removal capacity of ONOO^− of necrosis inhibitors. It is well known that DHR123 probe is oxidized by ONOO^−. Thus, by using such a property, the capacity of each compound was measured.
10 μl of each compound, which was serially diluted 3-fold from 50 μM, was dispensed into each well of a 96-well plate, and then 170 μl of assay mixture (10 μM DHR123, 1×PBS, 100 μM DPTA without ONOO^−) was added to each well. Finally, 20 μl of ONOO^− solution (final concentration: 1 μM) was added to initiate a reaction. Herein, the term “IC50” refers to the concentration of compounds which causes 50% inhibition of oxidation of DHR123 by ONOO^−.

Row | pIC50 [1] | SMILES | IC50 (H9C2 cells [4]) [µM] | also measured
1 | 4.62 | Cc1cc(NC2CCCC2)c2[nH]c(C3=N[C@@H](CC(=O)O)CS3)cc2c1 [Compound 1, [(S)-2-(7-cyclopentylamino-5-methyl-1H-indol-2-yl)-4,5-dihydro-thiazol-4-yl]-acetic acid] |  | 
2 | 4.76 | Cc1cc(NC2CCCC2)c2[nH]c(C3=N[C@@H](CC(=O)O)CO3)cc2c1 [Compound 3, [(S)-2-(7-cyclopentylamino-5-methyl-1H-indol-2-yl)-4,5-dihydro-oxazol-4-yl]-acetic acid] |  | IC25(μM) H2O2 (0.3 mM) [2]: 2.2 µM; IC25(μM) H2O2 (0.6 mM) [2]: 2.15 µM; IC25(μM) tBOOH (0.2 mM) [3]: 2 µM; IC25(μM) tBOOH (0.4 mM) [3]: 2.4 µM
3 | 4.77 | CS(=O)(=O)N1CCC(Nc2cc(CN3CCS(=O)(=O)CC3)cc3cc(-c4ccccc4)[nH]c23)CC1 [Compound 13, [5-(1,1-dioxo-thiomorpholin-4-yl)methyl-2-phenyl-1H-indol-7-yl]-(1-methylsulfonyl-piperidin-4-yl)-amine] | < 0.2 | IC25 (μM), anti-oxidant effect by using DHR 123 (H9C2 cells [5]): <0.1 µM; pIC50 [6]: 6.05
4 | 4.66 | O=S1(=O)CCN(Cc2cc(NCC3CCOCC3)c3[nH]c(-c4ccccc4)cc3c2)CC1 [Compound 10, [5-(1,1-dioxo-thiomorpholin-4-yl)methyl-2-phenyl-1H-indol-7-yl]-(tetrahydropyran-4-yl)methyl-amine] |  | 
5 | 4.90 | O=S1(=O)CCN(Cc2cc(N(CC3CCOCC3)CC3CCOCC3)c3[nH]c(-c4ccccc4)cc3c2)CC1 [Compound 11, [5-(1,1-dioxo-thiomorpholin-4-yl)methyl-2-phenyl-1H-indol-7-yl]-bis-[(tetrahydropyran-4-yl)methyl]-amine] |  | 
6 | 4.62 | Cc1cc(NC2CCOCC2)c2[nH]c(C3=N[C@@H](CC(=O)O)CS3)cc2c1 [Compound 2, {(S)-2-[5-methyl-7-(tetrahydropyran-4-ylamino)-1H-indol-2-yl]-4,5-dihydro-thiazol-4-yl}-acetic acid] | 6.5 | 
7 | 4.70 | O=C(O)C[C@H]1CSC(c2cc3cc(Oc4ccccc4)cc(NC4CCCC4)c3[nH]2)=N1 [Compound 5, [(S)-2-(7-cyclopentylamino-5-phenoxy-1H-indol-2-yl)-4,5-dihydro-thiazol-4-yl]-acetic acid] |  | pIC50 [6]: 5.47
8 | 4.60 | Cc1nnc2n1CCN(CC[C@]1(c3cc4cc(Oc5ccccc5)cc(NC5CCCC5)c4[nH]3)CSC=N1)C2 [Compound 7, cyclopentyl-(2-{(S)-4-[2-(3-methyl-5,6-dihydro-8H-[1,2,4]triazolo[4,3-a]pyrazin-7-yl)-ethyl]-4,5-dihydro-thiazol-4-yl}-5-phenoxy-1H-indol-7-yl)-amine] |  | 
9 | 4.69 | O=C(O)C[C@H]1CSC(c2cc3cccc(NCC4CCOCC4)c3[nH]2)=N1 [Compound 8, ((S)-2-{7-[(tetrahydropyran-4-ylmethyl)-amino]-1H-indol-2-yl}-4,5-dihydro-thiazol-4-yl)-acetic acid] |  | 
10 | 4.82 | O=C(O)C[C@H]1CSC(c2cc3cccc(NC4CCCC4)c3[nH]2)=N1 [Compound 4, [(S)-2-(7-cyclopentylamino-1H-indol-2-yl)-4,5-dihydro-thiazol-4-yl]-acetic acid] |  | IC25(μM) H2O2 (0.3 mM) [2]: 2.3 µM; IC25(μM) H2O2 (0.6 mM) [2]: 3.6 µM; IC25(μM) tBOOH (0.2 mM) [3]: 3 µM; IC25(μM) tBOOH (0.4 mM) [3]: 5.8 µM
11 |  | O=S1(=O)CCN(Cc2cc(NC3CCOCC3)c3[nH]c(-c4ccccc4)cc3c2)CC1 [Compound 9, (tetrahydropyran-4-yl)-[2-phenyl-5-(1,1-dioxo-thiomorpholin-4-yl)methyl-1H-indol-7-yl]-amine] | < 0.2 | IC25 (μM), anti-oxidant effect by using DHR 123 (H9C2 cells [5]): 0.10 µM
12 | 4.55 | Cc1cc(NCC2CCOCC2)c2[nH]c(C3=N[C@@H](CC(=O)O)CS3)cc2c1 [Compound 14, ((S)-2-{5-methyl-7-[(tetrahydropyran-4-ylmethyl)-amino]-1H-indol-2-yl}-4,5-dihydro-thiazol-4-yl)-acetic acid] | 0.72 | 
13 | 4.72 | O=C(C1CCCOC1)N1CCC(Nc2cc(CN3CCS(=O)(=O)CC3)cc3cc(-c4ccccc4)[nH]c23)CC1 (centres unmarked) [Compound 12, {4-[5-(1,1-dioxo-thiomorpholin-4-yl)methyl-2-phenyl-1H-indol-7-ylamino]-piperidin-1-yl}-(tetrahydropyran-3-yl)methanone] |  | IC25 (μM), anti-oxidant effect by using DHR 123 (H9C2 cells [5]): 0.24 µM; IC25(μM) H2O2 (0.3 mM) [2]: 1.65 µM; IC25(μM) H2O2 (0.6 mM) [2]: 2 µM; pIC50 [6]: 6.68; IC25(μM) tBOOH (0.2 mM) [3]: 1.95 µM; IC25(μM) tBOOH (0.4 mM) [3]: 3 µM
14 |  | c1ccc(-c2nc3cccc(NC4CCOCC4)c3[nH]2)cc1 [Example 2, (2-phenyl-3H-benzimidazol-4-yl)-(tetrahydro-pyran-4-yl)-amine] | 2 | 
15 |  | c1ccc(-c2nc3cccc(NC4CCCC4)c3[nH]2)cc1 [Example 1, cyclopentyl-(2-phenyl-3H -benzimidazol-4-yl)-amine] | 0.6 | 
16 | 4.64 | O=C1CN(CC[C@H]2CSC(c3cc4cc(Oc5ccccc5)cc(NC5CCCC5)c4[nH]3)=N2)CCN1 [Compound 6, 4-{2-[(S)-2-(7-cyclopentylamino-5-phenoxy-1H-indol-2-yl)-4,5-dihydro-thiazol-4-yl]-ethyl}-piperazin-2-one] | 0.13 | 
